Consider one molecule from patent publication EP0292023A2, “Pyrimidine derivatives” (F. HOFFMANN-LA ROCHE AG, priority 1987, dated 1988).

In one test the test system is HTLV III (Stamm RF). The experiment in a line: Activity against HIV (p24 antigen capture assay in infected C8166 cells). It is filed as cell-based. Particulars: concentration giving 50% protection; C8166 cells infected with 10-fold TCD₅₀, 72 h incubation at 37°C, viral protein 24 antigen in supernatant; read-out: IC₅₀. The method, then:
(B) Wirksamkeit gegen HIV
In diesem Versuch verwendet man HTLV III (Stamm RF), gezüchtet in C8166-Zellen (eine menschliche CD4⁺ T-Lymphoblastenlinie), RPM1 1640 Medium mit Bicarbonatpuffer, Antibiotika und 10%igem fötalem Rinderserum. Eine Zellensuspen sion wird mit der 10-fachen TCD₅₀ des Virus infiziert. Man lässt 90 Minuten bei 37°C adsorbieren. Die Zellen werden mit dem Medium gewaschen. Der Versuch wird in 6 ml Gewebekulturröhren durchgeführt. Jedes Rohr enthalt 2 x 10⁵ infizierte Zellen in 1,5 ml Medium. Es werden 15 µl einer Lösung der Substanz in wässrigem Medium oder in DMSO zugesetzt. Nach 72 Stunden Inkubation bei 37°C in einer feuchten 5% CO₂ enthaltenden Atmosphäre werden die Kulturen zentrifugiert. Ein aliquoter Teil des Ueberstandes wird solubilisiert und einem Antigenabfangversuch unterworfen unter Verwendung eines primären Antiserums mit besonderer Reaktivität gegen virales Protein 24 und eines Meerrettich-Peroxidase-Detektionssystems. Die Farbenerzeugung wird spektrophotometrisch gemessen und in Abhängigkeit der Konzentration der Testsubstanz dargestellt. Die einen 50%igen Schutz erzeugende Konzentration (IC₅₀) wird ermittelt. In diesem Test hat DFAC ein IC₅₀ von 1 µM.

Test [1] has as its system Schaf-Lentiviren des Stammes WLC-1. The experiment in a line: Activity against sheep lentivirus (protection from cytopathic effect in SCP cells). It is filed as cell-based. The conditions noted are these: minimal concentration giving 100% protection from cytopathic effect, 12 days incubation at 37°C, crystal violet staining, visual reading. The source says:
(A) Aktivität gegen Schaf-Lentiviren
In diesem Versuch verwendet man Schaf-Lentiviren des Stammes WLC-1, der im Plexus chorioideus (SCP) des Schafs mit 10% fötalem Rinderserum enthaltenden Medium gezüchtet wurde. Die Verbindungen werden in 96 Vertiefungen enthaltenden Platten getestet. Jede Vertiefung enthält 10⁴SCP-Zellen, die 48 Stunden inkubiert wurden. Die Testverbindungen werden, gelöst in Dimethylsulfoxid (DMSO), bis zu einer Endkonzentration von 1% DMSO hinzugefügt, zusammen mit einem Virus-Inokulum, das innert 12 Tagen einen 100%igen cytopathischen Effekt bewirkt. Nach 12-tägiger Inkubation bei 37°C werden die Platten mit Kristallviolett angefärbt. Effekt in den die Testverbindungen enthaltenden Vertiefungen wird visuell durch Vergleich mit lediglich den Virus enthaltenden Vertiefungen und nicht-infizierten Vertiefungen ermittelt. Die Wirksamkeit (MPC) ist die minimale Konzentration der Testverbindung, die einen 100%igen Schutz bewirkt. In diesem Versuch hat DFAC einen MPC von 2,5 µM.

As for `Nc1ccn([C@@H]2O[C@H](CO)C[C@@H]2F)c(=O)n1` [DFAC, 1-(2′,3′-Dideoxy-2′-fluor-b-D-arabinofuranosyl)cytosin], the IC50 in the test on HTLV III (Stamm RF) was determined as 1000 nM. Moreover, in test [1], the MPC is given as 2,5 µM.
